Data reported in patent EP0115714A1, “Pharmaceutical composition with psychotropic dopaminergic action” (priority 1983, dated 1984).

How the values were obtained:
[1] = test system: toxicité de groupe due à l'amphétamine; assay: Antagonism of amphetamine group toxicity (predictive of antipsychotic activity); assay type: in vivo, souris Charles River CD1; conditions: Mus musculus, ip; mice, compound i.p. 30 min before amphetamine 30 mg/kg i.p.; mortality over 24 h; confidence limits 10,1 - 26,7; read-out: DE50 (limites de confiance) d'antagonisme de la mortalité due à l'amphétamine
Text: L'activité antipsychotique d'un composé représentatif, le monomaléate de 2-(1-pipérazinyl)pyrimidine, a été déterminée dans le test de l'antagonisme de la toxicité de groupe due à l'amphétamine (J.H. Burn et al., Arch. Int. Pharmacodyn. Ther. 1958, 113, 290).
Le moncmaléate de 2-(1-pipérazinyl)pyrimidine a été administré à des doses croissantes par voie intrapéritonéale à des lots de 10 souris Charles River CD1 pesant 20-22 g et groupées dans des cages de 22 cm de long, 12 cm de large et 12 cm de haute. Trente minutes après l'administration, on a injecté par voie intrapéritonéale de l'amphétamine à la dose de 30 mg/kg. La mortalité des animaux a été évaluée durant les 24 h qui ont suivi l'injection d'amphétamine et comparée, dans chaque groupe, à celle du groupe d'animaux témoins n'ayant reçu que le véhicule (sérum physiologique).
Le tableau I ci-dessous montre la dose efficace médiane (DE50) d'antagonisme de la mortalité due à l'amphétamine.

[2] = test system: catalepsie provoquée par la prochlorpérazine; assay: Antagonism of the onset of prochlorperazine-induced catalepsy (cork test; predictive of antidepressant activity); assay type: in vivo, rats mâles Wistar; conditions: rats, prochlorperazine 10 mg/kg s.c. 1 h later, read 5 h after
Text: L'activité antidépressive des composés de l'invention a été évaluée dans le test de l'antagonisme vis-à-vis de l'installation de la catalepsie provoquée par la prochlorrérazine (K. Bizière et al., Arzneimittel Forschung, 1982, 32 (II), 824).
Un composé représentatif de l'invention, à savoir le monomaléate de 2-(1-pipérazinyl)pyrimidine, a été administré par voie intrapéritonéale à des groupes de 10 rats mâles Wistar pesant 220-240 g; des animaux de contrôle ont été en même temps traités par du sérum physiologique. Une heure après, les animaux ont reçu, par voie sous-cutanée, de la prochlorpérazine à une dose de […]. Cinq heures après cette administration, le nombre d'animaux cataleptiques a été estimé par le test du bouchon. Ce test consiste à positionner les animaux de telle sorte qu'ils puissent maintenir pendant au moins 20 seconds leurs pattes en appui sur une colonne formée de trois bouchons de liège superposés (hauteur totale 11 cm). Les performances réalisées pour chaque groupe d'animaux ont été comparées à celles du croupe d'animaux témoins n'ayant reçu que le véhicule et la prochlorpérazine.
Le tableau II ci-dessous montre le pourcentage d'antagonisme de l'installation de la catalepsie provoquée par la prochlorpérazine.

activité antifilariale = conditions: H.W. Stewart et al., J. Org. Chem. 1953, 18, 1478; cited from earlier work
[3] = H.W. Stewart et al., J. Org. Chem. 1953, 18, 1478; cited from earlier work

## c1cnc(N2CCNCC2)nc1 [2-(1-pipérazinyl)pyrimidine monomaléate, monomaléatede 2-(1-pipérazinyl)pyrimidine]
[1]
  ED50: 16.5 mg/kg
[2]; dose 0,1 mg/kg i.p.
  % d'antagonisme de l'installation de la catalepsie provoquée par la prochlorpérazine: 20%
[2]; dose 1 mg/kg i.p.
  % d'antagonisme de l'installation de la catalepsie provoquée par la prochlorpérazine: 80%

## c1cnc(N2CCNCC2)nc1 [2-(l-pipérazinyl)pyrimidine]
activité antifilariale
  activité antifilariale: aucun n'a montré d'activité
[3]
  activité analgésique: aucun n'a montré d'activité
